Patent publication US9695155B2, “Herbicidal substituted pyrimidinyloxy benzene compounds” (E. I. DU PONT DE NEMOURS AND COMPANY, priority 2013, dated 2017)

Experiments:
corn [1] = assay: Test C preemergence; format: in vivo, Zea mays; settings: for Corn plant response rating: preemergence
Procedure, shortened: (§1)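 Injury was assessed visually against controls 13 to 15 days after application, with 0 meaning no effect and 100 full control; missing entries are shown as a dash. Preemergence sprays hit seeded loam–sand soil, postemergence sprays hit 1- to 4-leaf plants.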

lambsquarters [2] = assay: Test C preemergence; format: in vivo, Chenopodium album; settings: preemergence
Procedure, shortened: as §1

giant foxtail [3] = assay: Test C postemergence; format: in vivo, Setaria faberii
Procedure, shortened: as §1

velvetleaf = assay: Test C preemergence; format: in vivo, Abutilon theophrasti; settings: preemergence
Procedure, shortened: as §1

morningglory [4] = assay: Test C preemergence; format: in vivo, Ipomoea coccinea; settings: preemergence
Procedure, shortened: as §1

ragweed [5] = assay: Test C postemergence; format: in vivo, Ambrosia elatior
Procedure, shortened: as §1

pigweed [6] = assay: Test C postemergence; format: in vivo, Amaranthus retroflexus
Procedure, shortened: as §1

galium = assay: Test C preemergence; format: in vivo, Galium aparine; settings: for Galium plant response rating: preemergence
Procedure, shortened: as §1

lambsquarters [7] = assay: Test C postemergence; format: in vivo, Chenopodium album
Procedure, shortened: as §1

waterhemp = assay: Test C postemergence; format: in vivo, Amaranthus rudis
Procedure, shortened: as §1

soybean = assay: Test C postemergence; format: in vivo, Glycine max
Procedure, shortened: as §1

wheat = assay: Test A preemergence; format: in vivo, Triticum aestivum
Procedure, shortened: (§2)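 Visual injury scored 0–100 (100 = complete control) against untreated controls about 10 days after treatment in a greenhouse. Test chemicals, formulated with surfactant in non-phytotoxic solvent, were sprayed on soil preemergence or on 2-10 cm, one- to two-leaf plants postemergence.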

large (Lg) crabgrass = assay: Test C postemergence; format: in vivo, Digitaria sanguinalis
Procedure, shortened: as §1

corn [8] = assay: Test A postemergence; format: in vivo, Zea mays; settings: 0 to 100 scale where 0 is no effect and 100 is complete control
Procedure, shortened: as §2

pigweed [9] = assay: Test A postemergence; format: in vivo, Amaranthus retroflexus; settings: 0 to 100 scale where 0 is no effect and 100 is complete control
Procedure, shortened: as §2

ragweed [10] = assay: Test C preemergence; format: in vivo, Ambrosia elatior; settings: preemergence
Procedure, shortened: as §1

giant foxtail [11] = assay: Test A postemergence; format: in vivo, Setaria faberii; settings: 0 to 100 scale where 0 is no effect and 100 is complete control
Procedure, shortened: as §2

morningglory [12] = assay: Test C postemergence; format: in vivo, Ipomoea coccinea
Procedure, shortened: as §1

[13] = 16 g ai/ha, scale 0 to 100 (0 no effect, 100 complete control)
[14] = 62 g ai/ha, scale 0 (no effect) to 100 (complete control)
[15] = 125 g ai/ha, scale 0 (no effect) to 100 (complete control)
[16] = Preemergence, 31 g ai/ha, scale 0 to 100, 0 no effect, 100 complete control
[17] = 16 g ai/ha, postemergence, 0 is no effect, 100 is complete control
[18] = 31 g ai/ha, postemergence, visual rating, scale 0 to 100 (0 no effect, 100 complete control), 13 to 15 days
[19] = 125 g ai/ha, postemergence, visual rating, scale 0 to 100 (0 no effect, 100 complete control)
[20] = Postemergence, 62 g ai/ha, scale 0 to 100 (0 no effect, 100 complete control)

FC(F)(F)c1cnn(-c2c(Cl)cccc2Oc2ncc(Cl)cn2)c1 [Compound 167]
Corn plant response rating (corn [1]; [13]): 0 | Corn plant response rating (corn [1]; [14]): 25 | Corn plant response rating (corn [1]; [15]): 60 | Plant response rating, Corn (corn [1]; [16]): 5 | Lambsquarters plant response rating (lambsquarters [2]; [13]): 75 | Lambsquarters plant response rating (lambsquarters [2]; [14]): 100 | Lambsquarters plant response rating (lambsquarters [2]; [15]): 100 | Plant response rating (0 to 100), Foxtail, Giant (giant foxtail [3]; [17]): 10 | Foxtail, Giant plant response rating (giant foxtail [3]; [18]): 10 | Plant response rating, Foxtail, Giant (giant foxtail [3]; [19]): 30 | Plant response rating, Foxtail, Giant (giant foxtail [3]; [20]): 10 | Velvetleaf plant response rating (velvetleaf; [13]): 45 | Velvetleaf plant response rating (velvetleaf; [14]): 100 | Velvetleaf plant response rating (velvetleaf; [15]): 100 | Morningglory plant response rating (morningglory [4]; [13]): 30 | Morningglory plant response rating (morningglory [4]; [14]): 50 | Morningglory plant response rating (morningglory [4]; [15]): 100 | Plant response rating (0 to 100), Ragweed (ragweed [5]; [17]): 10 | Ragweed plant response rating (ragweed [5]; [18]): 10 | Plant response rating, Ragweed (ragweed [5]; [19]): 55 | Plant response rating, Ragweed (ragweed [5]; [20]): 30 | Plant response rating (0 to 100), Pigweed (pigweed [6]; [17]): 80 | Pigweed plant response rating (pigweed [6]; [18]): 90 | Plant response rating, Pigweed (pigweed [6]; [19]): 98 | Plant response rating, Pigweed (pigweed [6]; [20]): 95 | Galium plant response rating (galium; [13]): 98 | Galium plant response rating (galium; [14]): 100 | Galium plant response rating (galium; [15]): 100 | Plant response rating, Galium (galium; [16]): 100 | Plant response rating (0 to 100), Lambsquarters (lambsquarters [7]; [17]): 80 | Lambsquarters plant response rating (lambsquarters [7]; [18]): 90 | Plant response rating, Lambsquarters (lambsquarters [7]; [19]): 100 | Plant response rating, Lambsquarters (lambsquarters [7]; [20]): 98 | Plant response rating (0 to 100), Waterhemp (waterhemp; [17]): 65 | Waterhemp plant response rating (waterhemp; [18]): 75 | Plant response rating, Waterhemp (waterhemp; [19]): 98 | Plant response rating, Waterhemp (waterhemp; [20]): 85 | Plant response rating (0 to 100), Soybean (soybean; [17]): 20 | Soybean plant response rating (soybean; [18]): 30 | Plant response rating, Soybean (soybean; [19]): 60 | Plant response rating, Soybean (soybean; [20]): 60 | Wheat plant response rating (0 to 100 scale) (wheat; 125 g ai/ha): 0 | Wheat plant response rating (wheat; 500 g ai/ha, 0 to 100 scale where 0 is no effect and 100 is complete control): 50 | Plant response rating (0 to 100), Crabgrass, Large (large (Lg) crabgrass; [17]): 5 | Crabgrass, Large plant response rating (large (Lg) crabgrass; [18]): 5 | Plant response rating, Crabgrass, Large (large (Lg) crabgrass; [19]): 10 | Plant response rating, Crabgrass, Large (large (Lg) crabgrass; [20]): 5 | Corn plant response rating (corn [8]; 125 g ai/ha): 40 | Plant response rating, Corn (corn [8]; 500 g ai/ha): 50 | Pigweed plant response rating (pigweed [9]; 125 g ai/ha): 100 | Plant response rating, Pigweed (pigweed [9]; 500 g ai/ha): 100 | Ragweed plant response rating (ragweed [10]; [13]): 15 | Ragweed plant response rating (ragweed [10]; [14]): 15 | Ragweed plant response rating (ragweed [10]; [15]): 20 | Foxtail, Giant plant response rating (giant foxtail [11]; 125 g ai/ha): 90 | Plant response rating, Foxtail, Giant (giant foxtail [11]; 500 g ai/ha): 90 | Plant response rating (0 to 100), Morningglory (morningglory [12]; [17]): 80 | Morningglory plant response rating (morningglory [12]; [18]): 60 | Plant response rating, Morningglory (morningglory [12]; [19]): 90 | Plant response rating, Morningglory (morningglory [12]; [20]): 98
